From patent publication US4469686A, “Substituted phosphinic acids” (priority 1980, dated 1984)

Experiments:
mice = assay: Acute toxicity studies in mice; type: in vivo; conditions: i.p.
Experimental: Acute toxicity studies in mice have shown that the minimum single dose to cause death is >2400 mg/kg i.p. for compound B and ≤400 mg/kg i.p. for DL-penicillamine.

[1] = Test for cupriuretic activity; type: in vivo; conditions: at 1 mM/kg
Excerpt: (B) Test for cupriuretic activity:
This test is relevant to Wilson's disease. The method followed is the method of K. GIBBS and J. M. WALSHE (Clinical Science and Molecular Medicine, 1977, 53, 317-20).

[2] = Test for catalytic dismutation of superoxide; type: biochemical; conditions: test compound: copper glycine ratio of 4:1; read-out: Catalysis of superoxide dismutation, I50
Excerpt: (A) Test for catalytic dismutation of superoxide:
This test is relevant to degenerative joint disease and inflammation. The method followed is the method of M. YOUNES and U. WESER [Biochem.Biophys.Res.Commun. 1977, 78 (4) 1247-53] using a test compound: copper glycine ratio of 4:1.

## CC(C)(S)C(N)C(=O)O (racemic) [DL-penicillamine, reference compound]
mice
  minimum single dose to cause death: ≤ 400 mg/kg

## CC1(C)NC([PH](=O)O)C(C)(C)S1 (racemic) [Compound D, DL-(2,2,5,5-Tetramethyl-4-thiazolidinyl)phosphinic acid]
[1]
  Cupriuretic activity, % Increase: 308%

## CC(C)(S)C(N)P(=O)(O)O (racemic) [Compound A, DL-(1-Amino-2-mercapto-2-methylpropyl)phosphonic acid]
[2]
  IC50: 1200 nM
[1]
  Cupriuretic activity, % Increase: 139%

## CC(C)(S)C(N)[PH](=O)O (racemic) [Compound B, DL-(1-Amino-2-mercapto-2-methylpropyl)phosphinic acid]
[2]
  IC50: 1200 nM
[1]
  Cupriuretic activity, % Increase: 397%
mice
  minimum single dose to cause death: > 2400 mg/kg

## CC1(C)NC(P(=O)(O)O)C(C)(C)S1 (racemic) [Compound C, DL-2,2,5,5-Tetramethyl-4-thiazolidinyl)phosphonic acid]
[1]
  Cupriuretic activity, % Increase: 122%
